Source: patent EP0976707A1, “CYCLOALKYL BENZYL ETHER COMPOUNDS” (Nissan Chemical Industries, Ltd., priority 1997, dated 1998)
Where two headings read alike, the source gives them in different places.

Key:
Type in all cases: in vivo
[1] = test system: Rotala indica; assay: Comparative test, post-emergence treatment under submerged conditions (as Test Example 2); settings: three weeks after the treatment, rating 0-5
Excerpt: (§1) [Test Example 2] Herbicidal effect test by post-emergence treatment to weeds under submerged conditions
(§2) In a 1/10,000-are Wagner pot was filled alluvial soil, which was mixed with water introduced therein to establish submerged conditions at a water depth of 4 cm. Respective seeds of Echinochloa crus-galli var. crus-galli, Monochoria vaginalis, Rotala indica and Scirpus juncoides were sowed mixedly in the pot and then 2.5 leaf stage rice seedlings were transplanted. The pot was placed in a greenhouse at 25 to 30°C to grow the plant. When Echinochloa crus-galli var. crus-galli, Monochoria vaginalis, Rotala indica and Scirpus juncoides reached 1 to 2 leaf stage and the rice plant reached 4 leaf stage, the compound of the present invention prepared according to one of Composition Examples was applied onto the water surface at a predetermined application rate. Three weeks after the treatment, the herbicidal effect on each kind of the weeds was examined in accordance with the criteria of judgment in Test Example 1.
(§3) [drawing 170] (diastreomer-(1) and (2)) involved in the claims of WO 97/02258 and the compound No. A-5 of the present invention were carried out in manners similar to that in test example 1 and 2.

[2] = test system: Scirpus juncoides; assay: Herbicidal effect test under submerged conditions (Test Example 5); design: key: 0 indicating no influence; 5 indicating complete withering; settings: three weeks after the treatment, rating 0-5
Excerpt: (§4) [Test Example 5] Herbicidal effect test under submerged conditions
(§5) In a 1/10,000-are Wagner pot was filled alluvial soil, which was mixed with water introduced therein to establish submerged conditions at a water depth of 4 cm. Respective seeds of Monochoria vaginalis, Rotala indica and Scirpus juncoides were sowed mixedly in the pot and then treated with the compound of the present invention prepared according to one of Composition Examples. Three weeks after the treatment, the herbicidal effect on the various weeds was examined.

[3] = test system: Rotala indica; assay: as above; design: key: 0 indicating no influence; 5 indicating complete withering; settings: three weeks after the treatment, rating 0-5
Excerpt: as §4, §5

[4] = test system: Monochoria vaginalis; assay: as above; design: key: 0 indicating no influence; 5 indicating complete withering; settings: three weeks after the treatment, rating 0-5
Excerpt: as §4, §5

[5] = test system: Echinochloa crus-galli var. crus-galli; assay: Comparative test, post-emergence treatment under submerged conditions (as Test Example 2); design: key: 0 indicating no influence; 5 indicating complete withering; settings: three weeks after the treatment, rating 0-5
Excerpt: as §1, §2, §3

[6] = test system: Scirpus juncoides; assay: as above; design: key: 0 indicating no influence; 5 indicating complete withering; settings: three weeks after the treatment, rating 0-5
Excerpt: as §1, §2, §3

[7] = test system: Monochoria vaginalis; assay: as above; design: key: 0 indicating no influence; 5 indicating complete withering; settings: three weeks after the treatment, rating 0-5
Excerpt: as §1, §2, §3

[8] = test system: Scirpus juncoides; assay: Herbicidal effect test under submerged conditions, inhibition ratio (Test Example 6); settings: Schoenoplectiella juncoides, 504 h, read-out: inhibition ratio (%), B (Scirpus juncoides); for pest or weed control at 2 g/ha: dosage 2 g/ha
Excerpt: (§6) [Test Example 6] Herbicidal effect test under submerged conditions
(§7) In a 1/5,000-are Wagner pot was filled alluvial soil, which was mixed with water introduced therein to establish submerged conditions at a water depth of 4 cm. After seeds of Monochoria vaginalis and Scirpus juncoides were sowed mixedly in the pot, 2.5 leaf stage rice seedlings were transplanted at a depth of 2 cm. On the next day of transplantation of the rice, the compound of the present invention prepared according to one of Composition Examples was applied. Three weeks after the treatment, the live weights of aerial parts of each kind of the weeds and rice were measured and inhibition ratios (%) were obtained according to Test Example 4. In the tables, (E) indicates expected values obtained by the equation of Colby and (F) indicates found values. Left side values and right side values in the column of application rate for each active ingredient indicate corresponding dosages of compounds in the column of compound name.
(§8) Synergistic herbicidal effect of herbicide mixtures will be explained as follows. That is, individual active compounds in many cases may be deficient in their herbicidal activity. In such a case, if the herbicidal activity of two active compounds in combination is higher than the simple sum of the activities of the compounds (expected activity), then this is called synergistic action. The expected activity from the stable combination of two herbicides, can be calculated as follows. (cf. Colby, S. R., Calculation of Synergistic and Antagonistic Reactions of Combination of Herbicides, Weed, vol. 15, pages 20-22 (1967)) E = α + β - ( α · β / 100) [formula] α : Inhibition ratio when herbicide A is applied in a rate of a kg/ha β : Inhibition ratio when herbicide B is applied in a rate of b kg/ha E : Inhibition ratio expected when herbicide A is applied in a rate of a kg/ha and herbicide B is applied in a rate of b kg/ha.

[9] = test system: Monochoria vaginalis; assay: as above; settings: Pontederia vaginalis, 504 h, read-out: inhibition ratio (%), C (Monochoria vaginalis); for pest or weed control at 2 g/ha: dosage 2 g/ha
Excerpt: as §6, §7, §8

[10] = test system: transplanted rice; assay: as above; settings: live weight of aerial part, three weeks after the treatment
Excerpt: Herbicidal effect test under submerged conditions
In a 1/5,000-are Wagner pot was filled alluvial soil, which was mixed with water introduced therein to establish submerged conditions at a water depth of 4 cm. After seeds of Monochoria vaginalis and Scirpus juncoides were sowed mixedly in the pot, 2.5 leaf stage rice seedlings were transplanted at a depth of 2 cm. On the next day of transplantation of the rice, the compound of the present invention prepared according to one of Composition Examples was applied. […] In the tables, (E) indicates expected values obtained by the equation of Colby and (F) indicates found values.
The expected activity from the stable combination of two herbicides, can be calculated as follows.

[11] = test system: rice plant; assay: Phytotoxicity test under shallow planting conditions for rice plant (Test Example 4); settings: aerial part, three weeks after the treatment
Excerpt: [Test Example 4] Phytotoxicity test under shallow planting conditions for rice plant In a 1/5,000-are Wagner pot was filled alluvial soil, which was mixed with water introduced therein to establish submerged conditions at a water depth of 4 cm. Rice seedlings at 2.5 leaf stage were transplanted at a depth of 0.5 cm and the roots were exposed to the air. On the day when the transplantation was made, the compound of the present invention prepared according to one of Composition Examples was applied. Three weeks after the treatment, the live weight of the aerial part of the plant was measured and inhibition ratio (%) was obtained according to the following equation. Inhibition ratio (%) = (1 -(live weight of aerial part of treated plant)/(live weight of aerial part of non-treated plant)) x 100 [formula]

[12] = test system: transplanted rice; assay: Comparative test, pre-emergence treatment under submerged conditions (as Test Example 1); design: key: 0 indicating no influence; 5 indicating complete withering; settings: pre-emergence treatment to weeds, three weeks after the treatment, rating 0-5
Excerpt: (§9) [Test Example 1] Herbicidal effect test by pre-emergence treatment to weeds under submerged conditions
(§10) In a 1/10,000-are Wagner pot was filled alluvial soil, which was mixed with water introduced therein to establish submerged conditions at a water depth of 4 cm. Respective seeds of Echinochloa crus-galli var. crus-galli, Monochoria vaginalis, Rotala indica and Scirpus juncoides were sowed mixedly in the pot and then 2.5 leaf stage rice seedlings were transplanted. The pot was placed in a greenhouse at 25 to 30°C to grow the plant. One day after the sowing, the compound of the present invention prepared according to one of Composition Examples was applied onto the water surface at a predetermined application rate. Three weeks after the treatment, the herbicidal effect on the rice plant and each kind of the weeds was examined. There was used five rating evaluation, with 0 indicating no influence and 5 indicating complete withering.
as §3

[13] = test system: Echinochloa crus-galli var. crus-galli; assay: as above; design: key: 0 indicating no influence; 5 indicating complete withering; settings: three weeks after the treatment, rating 0-5
Excerpt: as §9, §10, §3

[14] = test system: Scirpus juncoides; assay: as above; design: key: 0 indicating no influence; 5 indicating complete withering; settings: three weeks after the treatment, rating 0-5
Excerpt: as §9, §10, §3

[15] = test system: Rotala indica; assay: as above; design: key: 0 indicating no influence; 5 indicating complete withering; settings: three weeks after the treatment, rating 0-5
Excerpt: as §9, §10, §3

[16] = test system: Monochoria vaginalis; assay: as above; design: key: 0 indicating no influence; 5 indicating complete withering; settings: three weeks after the treatment, rating 0-5
Excerpt: as §9, §10, §3

[17] = dosage 25 g/ha, live weight of aerial part, three weeks after the treatment
[18] = live weight of aerial part, three weeks after the treatment
[19] = dosage 4 g/ha, live weight of aerial part, three weeks after the treatment

C=C(C)[C@@H]1C[C@@H]2O[C@]2(C)[C@H](OCc2ccccc2F)C1 [A-5, (1S, 2R, 4S, 6S)-2-(2-fluorobenzyloxy)-4-isopropenyl-1-methyl-7-oxabicyclo[4.1.0]heptane]
herbicidal effect, D (Rotala indica) ([1]; dosage 12.5 g/ha): 1
herbicidal effect, D (Rotala indica) ([1]; dosage 50 g/ha): 3
herbicidal effect, D (Rotala indica) ([1]; dosage 200 g/ha): 4
herbicidal effect, B (Scirpus juncoides) ([2]; dosage 125 g/ha): 4
herbicidal effect, B (Scirpus juncoides) ([2]; dosage 250 g/ha): 5
herbicidal effect, B (Scirpus juncoides) ([2]; dosage 500 g/ha): 5
herbicidal effect, D (Rotala indica) ([3]; dosage 125 g/ha): 2
herbicidal effect, D (Rotala indica) ([3]; dosage 250 g/ha): 4
herbicidal effect, D (Rotala indica) ([3]; dosage 500 g/ha): 5
herbicidal effect, C (Monochoria vaginalis) ([4]; dosage 125 g/ha): 3
herbicidal effect, C (Monochoria vaginalis) ([4]; dosage 250 g/ha): 5
herbicidal effect, C (Monochoria vaginalis) ([4]; dosage 500 g/ha): 5
herbicidal effect, A (Echinochloa crus-galli var. crus-galli) ([5]; dosage 12.5 g/ha): 1
herbicidal effect, A (Echinochloa crus-galli var. crus-galli) ([5]; dosage 50 g/ha): 5
herbicidal effect, A (Echinochloa crus-galli var. crus-galli) ([5]; dosage 200 g/ha): 5
herbicidal effect, B (Scirpus juncoides) ([6]; dosage 12.5 g/ha): 1
herbicidal effect, B (Scirpus juncoides) ([6]; dosage 50 g/ha): 3
herbicidal effect, B (Scirpus juncoides) ([6]; dosage 200 g/ha): 5
herbicidal effect, C (Monochoria vaginalis) ([7]; dosage 12.5 g/ha): 1
herbicidal effect, C (Monochoria vaginalis) ([7]; dosage 50 g/ha): 4
herbicidal effect, C (Monochoria vaginalis) ([7]; dosage 200 g/ha): 5
pest or weed control at 25 g/ha [8, 17]: 52%
pest or weed control at 25 g/ha [9, 17]: 59%
inhibition ratio (%), a (transplanted rice) ([10]; dosage 25 g/ha): 0%
the ratio of live weight to the non-treated area (%) ([11]; dosage 125 g/ha): 86%
the ratio of live weight to the non-treated area (%) ([11]; dosage 250 g/ha): 67%
herbicidal effect, a (transplanted rice) ([12]; dosage 12.5 g/ha): 0
herbicidal effect, a (transplanted rice) ([12]; dosage 50 g/ha): 0
herbicidal effect, a (transplanted rice) ([12]; dosage 200 g/ha): 0
herbicidal effect, A (Echinochloa crus-galli var. crus-galli) ([13]; dosage 12.5 g/ha): 5
herbicidal effect, A (Echinochloa crus-galli var. crus-galli) ([13]; dosage 50 g/ha): 5
herbicidal effect, A (Echinochloa crus-galli var. crus-galli) ([13]; dosage 200 g/ha): 5
herbicidal effect, B (Scirpus juncoides) ([14]; dosage 12.5 g/ha): 2
herbicidal effect, B (Scirpus juncoides) ([14]; dosage 50 g/ha): 3
herbicidal effect, B (Scirpus juncoides) ([14]; dosage 200 g/ha): 5
herbicidal effect, D (Rotala indica) ([15]; dosage 12.5 g/ha): 2
herbicidal effect, D (Rotala indica) ([15]; dosage 50 g/ha): 5
herbicidal effect, D (Rotala indica) ([15]; dosage 200 g/ha): 5
herbicidal effect, C (Monochoria vaginalis) ([16]; dosage 12.5 g/ha): 2
herbicidal effect, C (Monochoria vaginalis) ([16]; dosage 50 g/ha): 5
herbicidal effect, C (Monochoria vaginalis) ([16]; dosage 200 g/ha): 5

Cc1ccc(NC(=O)NC(C)(C)c2ccccc2)cc1 [R-1, daimuron, reference compound]
herbicidal effect, B (Scirpus juncoides) ([2]; dosage 500 g/ha): 5
herbicidal effect, D (Rotala indica) ([3]; dosage 500 g/ha): 1
herbicidal effect, C (Monochoria vaginalis) ([4]; dosage 500 g/ha): 0

CCOC(=O)c1cnn(C)c1S(=O)(=O)NC(=O)Nc1nc(OC)cc(OC)n1 [R-2, pyrazosulfuron ethyl]
pest or weed control at 2 g/ha [8, 18]: 71%
pest or weed control at 2 g/ha [9, 18]: 80%
inhibition ratio (%), a (transplanted rice) ([10]; dosage 2 g/ha): 0%

COC(=O)c1c(Cl)nn(C)c1S(=O)(=O)NC(=O)Nc1nc(OC)cc(OC)n1 [R-3, halosulfuron methyl]
pest or weed control at 4 g/ha [8]: 66%
pest or weed control at 4 g/ha [9]: 71%
inhibition ratio (%), a (transplanted rice) ([10]; dosage 4 g/ha): 0%

COc1cc(OC)nc(NC(=O)NS(=O)(=O)c2c(Cl)nc3ccccn23)n1 [R-4, imazosulfuron]
pest or weed control at 4 g/ha [8, 19]: 60%
pest or weed control at 4 g/ha [9, 19]: 65%

COc1cc(OC)nc(NC(=O)NS(=O)(=O)c2c(-c3nnn(C)n3)cnn2C)n1 [R-5, azimsulfuron]
pest or weed control at 2 g/ha [8, 18]: 61%
pest or weed control at 2 g/ha [9, 18]: 75%

COc1cc(OC)nc(NC(=O)NS(=O)(=O)Nc2ccccc2C(=O)C2CC2)n1 [R-6, cyclosulfamuron]
pest or weed control at 4 g/ha [8, 19]: 78%
pest or weed control at 4 g/ha [9, 19]: 77%
inhibition ratio (%), a (transplanted rice) ([10]; dosage 4 g/ha): 0%

CCOc1ccccc1OS(=O)(=O)NC(=O)Nc1nc(OC)cc(OC)n1 [R-7, ethoxysulfuron]
pest or weed control at 2 g/ha [8, 18]: 72%
pest or weed control at 2 g/ha [9, 18]: 63%

COCCOc1ccccc1S(=O)(=O)NC(=O)N=c1nc(OC)[nH]c(OC)n1 [R-8, cinosulfuron]
pest or weed control at 4 g/ha [8]: 70%
pest or weed control at 4 g/ha [9]: 69%
inhibition ratio (%), a (transplanted rice) ([10]; dosage 4 g/ha): 0%

COC(=O)c1ccccc1CS(=O)(=O)NC(=O)Nc1nc(OC)cc(OC)n1 [R-9, bensulfuron methyl]
pest or weed control at 4 g/ha [8, 19]: 68%
pest or weed control at 4 g/ha [9, 19]: 69%
